How the values were obtained:
[1] = molecular target: Coagulation Factor XIa protease (Homo sapiens (Human), UniProt P03951); test: Inhibition of Factor XIa detected by absorption photometry; assay type: biochemical; conditions: absorbance at 405 nm, 10 minutes at 37° C.
Outline: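 Compounds were serially diluted in 100% DMSO (200-0.002 μM dilution series) before addition to the wells. FXIa enzyme solution at 2.5 μg/ml and substrate solution at 2 mM were then added, both stock concentrations. After 10 min at 37° C., absorbance was read at 405 nm.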

human blood = test: In vitro anticoagulant effect on human blood (APTT, CT2); conditions: for CT2, concentration doubling APTT: concentration corresponding to 2 times the APTT of the blank control, human plasma
Description: Test Example 2: Determination of In Vitro Anticoagulant Effect of the Compounds of the Present Invention on Human Blood
1. Experimental Materials
Plasma: Human blood was collected in blood collection tubes containing no anticoagulant, and then 3.8% sodium citrate (volume ratio 1:9) was added. The tubes were centrifuged at 2500 rpm for 10 minutes at room temperature, and then the plasma was collected and stored at −80° C.;
Reagents: APTT reagent (Activated partial thromboplastin time assay kit, SIEMENS, Art. No. B4218-1), calcium chloride solution;
Instrument: Coagulation instrument (SYSMEX, CA-500).
The divided plasma was melted at room temperature and mixed well. 10000 μM the test compound dissolved in 100% DMSO was diluted to 3000, 300, 200, 150, 75, 30, 10, 3, 0.3 μM with 100% DMSO, and the blank was 100% DMSO. The reagent, plasma, and compound were placed in corresponding positions in the coagulation instrument, and APTT detection of the compound was carried out.
Curve fitting was carried out by graphpad and CT2 was calculated, i.e., the concentration of the compound corresponding to 2 times the APTT of the blank control.

[2] = Pharmacokinetics assay in rats after intragastrical administration; assay type: in vivo, Sprague-Dawley (SD) rats; conditions: both sexes, Sprague-Dawley, rat, plasma, po, SD rats, intragastric, 2 mg/kg; for Vd/F: read-out: Apparent Distribution Volume Vz/F; for AUC: read-out: Area Under Curve AUC; for CL/F: read-out: Clearance CLz/F; for half-life: read-out: Half-Life T½ (converted); for MRT: read-out: Mean Residence Time MRT; for Cmax: read-out: Plasma Concentration Cmax
Description: Test Example 3. Pharmacokinetics Assay of the Compounds of the Present Invention
Rats were used as test animals. […] The pharmacokinetic behavior of the compounds of the present invention was studied and evaluated in rats.
56 healthy adult Sprague-Dawley (SD) rats, half male and half female, were purchased from SINO-BRITSH SIPPR/BK LAB. ANIMAL LTD., CO, with License No.: SCXK (Shanghai) 2008-0016.
2.3 Preparation of the Test Compounds
A certain amount of the test compound was weighed, and added with 5% by volume of DMSO, 5% by volume of Tween 80 and 90% normal saline to prepare a 0.2 mg/mL colorless, clear and transparent solution.
After an overnight fast, SD rats were intragastrically administered at a dose of 2.0 mg/kg and an administration volume of 10.0 mL/kg.
Blood (0.2 mL) was taken from the orbital sinus before administration and at 0.5, 1.0, 2.0, 4.0, 6.0, 8.0, 11.0 and 24.0 hours after administration. The samples were stored in heparin anticoagulation tubes, and centrifuged for 10 minutes at 3500 rpm at 4° C. to separate the blood plasma. The plasma samples were stored at −20° C. The rats were fed 2 hours after administration.
The content of the test compound in the plasma of rats after intragastric administration of different concentrations of the drug was determined: 25 μL of rat plasma at each time after administration was taken and added with 30 μL (100 ng/mL) of the internal standard solution of camptothecin and 200 μL of acetonitrile, shaken vertically for 5 minutes, and centrifuged for 10 minutes (4000 rpm). 3.0 μL of the supernatant was taken from the plasma samples for LC/MS/MS analysis.
4. Results of Pharmacokinetic Parameters
Pharmacokinetic parameters of the compounds of the present invention in rats are shown below.

Chain of Coagulation Factor XIa protease (P03951 388-625): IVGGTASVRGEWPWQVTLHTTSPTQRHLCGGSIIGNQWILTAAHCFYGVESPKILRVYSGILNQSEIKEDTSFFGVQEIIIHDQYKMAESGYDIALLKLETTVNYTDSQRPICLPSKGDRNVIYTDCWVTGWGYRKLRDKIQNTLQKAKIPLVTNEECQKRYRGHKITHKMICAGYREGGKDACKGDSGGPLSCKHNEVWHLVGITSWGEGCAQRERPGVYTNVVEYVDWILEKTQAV
Chain of Coagulation Factor XIa protease (P03951 19-387 partner): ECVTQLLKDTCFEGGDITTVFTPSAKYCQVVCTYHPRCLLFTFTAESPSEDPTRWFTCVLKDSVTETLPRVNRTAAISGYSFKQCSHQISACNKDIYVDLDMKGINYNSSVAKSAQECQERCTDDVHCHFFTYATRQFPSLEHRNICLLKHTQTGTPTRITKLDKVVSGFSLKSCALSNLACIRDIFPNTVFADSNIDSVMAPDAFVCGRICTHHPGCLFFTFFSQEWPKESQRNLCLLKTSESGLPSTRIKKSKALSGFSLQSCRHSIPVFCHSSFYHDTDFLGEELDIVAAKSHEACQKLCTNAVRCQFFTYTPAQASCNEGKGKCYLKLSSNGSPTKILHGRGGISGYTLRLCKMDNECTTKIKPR

IC50 [1] [nM] | Vd/F [2] [L/kg] | AUC [2] [ng·h/mL] | CL/F [2] [mL/min/kg] | half-life [2] [h] | MRT [2] [h] | Cmax [2] [ng/mL] | Compound | CT2, concentration doubling APTT (human blood; Table 2) [µM] | CT2, concentration doubling APTT (human blood; Table 3 comparison) [µM] | CT2 value ratio, Example 114 versus comparative Example 2 (human blood; human blood, from Table 3) [times]
13 | 40.2 ± 18.6 | 125 ± 50 | 299 ± 111 | 1.53 ± 0.33 | 2.12 ± 0.17 | 73.1 ± 32.3 | COc1cn([C@@H](Cc2ccccc2)C(=O)Nc2ccc(C(N)=O)cc2)c(=O)cc1-c1cc(Cl)ccc1C(C)=O [Example 11, (S)-4-(2-(4-(2-acetyl-5-chlorophenyl)-5-methoxy-2-oxopyridin-1(2H)-yl)-3-phenylpropanamido)benzamide] | 4.2 |  | 
 | 21.6 ± 6.31 | 414 ± 77 | 82.5 ± 14.6 | 3.2 ± 1.41 | 3.24 ± 0.93 | 234 ± 66 | COc1cn([C@@H](Cc2ccccc2)C(=O)Nc2ccc(C(=O)O)cc2)c(=O)cc1-c1c(C(C)=O)ccc(Cl)c1F [Example 31, (S)-4-(2-(4-(6-acetyl-3-chloro-2-fluorophenyl)-5-methoxy-2-oxopyridin-1(2H)-yl)-3-phenylpropanamido)benzoic acid] | 8.5 |  | 
40 | 15.8 ± 2.29 | 158 ± 45 | 222 ± 55.7 | 0.85 ± 0.14 | 1.85 ± 0.76 | 126 ± 50 | COc1cn([C@@H](Cc2ccccn2)C(=O)Nc2ccc(C(=O)O)cc2)c(=O)cc1-c1cc(Cl)ccc1C(C)=O [Example 80, (S)-4-(2-(4-(2-acetyl-5-chlorophenyl)-5-methoxy-2-oxopyridin-1(2H)-yl)-3-(pyridin-2-yl)propanamido)benzoic acid] | 7.9 |  | 
35 |  |  |  |  |  |  | COc1cn(C(Cc2ccn(C)n2)C(=O)Nc2ccc(C(=O)O)cc2)c(=O)cc1-c1cc(Cl)ccc1C(C)=O (stereo not drawn) [Example 100, 4-(2-(4-(2-acetyl-5-chlorophenyl)-5-methoxy-2-oxopyridin-1(2H)-yl)-3-(1-methyl-1H-pyrazol-3-yl)propanamido)benzoic acid] | 3.3 |  | 
8150 |  |  |  |  |  |  | COc1cn([C@H](Cc2cnn(C)c2)C(=O)Nc2ccc(C(=O)O)cc2)c(=O)cc1-c1cc(Cl)ccc1C(C)=O [Example 104, (R)-4-(2-(4-(2-acetyl-5-chlorophenyl)-5-methoxy-2-oxopyridin-1 (2H)-yl)-3-(1-methyl-1H-pyrazol-4-yl)propanamido)benzoic acid] | >10000 |  | 
30 |  |  |  |  |  |  | COc1cn([C@@H](Cc2cnn(C)c2)C(=O)Nc2ccc(C(=O)O)cc2)c(=O)cc1-c1cc(Cl)ccc1C(C)=O [Example 105, (S)-4-(2-(4-(2-acetyl-5-chlorophenyl)-5-methoxy-2-oxopyridin-1(2H)-yl)-3-(1-methyl-1H-pyrazol-4-yl)propanamido)benzoic acid] | 6.9 |  | 
68 | 34.6 ± 4.13 | 365 ± 52 | 92.5 ± 12.3 | 4.34 ± 0.35 | 8.3 ± 1.33 | 53.9 ± 20.3 | COc1cn([C@H](CC2CCC2)C(=O)Nc2ccc(C(=O)O)cc2)c(=O)cc1-c1c(C(C)=O)ccc(Cl)c1F [Example 160, (R)-4-(2-(4-(6-acetyl-3-chloro-2-fluorophenyl)-5-methoxy-2-oxopyridin-1(2H)-yl)-3-cyclobutylpropanamido)benzoic acid] | 3.8 |  | 
42 |  |  |  |  |  |  | CCC(=O)c1ccc(Cl)cc1-c1cc(=O)n(C(CC2CCCCO2)C(=O)Nc2ccc(C(=O)O)cc2)cc1OC (stereo not drawn) [Example 166] | 7.2 |  | 

Second part, the molecule before the results:

Compound | IC50 [1] [nM] | Vd/F [2] [L/kg] | AUC [2] [ng·h/mL] | CL/F [2] [mL/min/kg] | half-life [2] [h] | MRT [2] [h] | Cmax [2] [ng/mL] | CT2, concentration doubling APTT (human blood; Table 2) [µM] | CT2, concentration doubling APTT (human blood; Table 3 comparison) [µM] | CT2 value ratio, Example 114 versus comparative Example 2 (human blood; human blood, from Table 3) [times]
CCC(=O)c1ccc(Cl)cc1-c1cc(=O)n([C@@H](Cc2ccccc2)C(=O)Nc2ccc(C(=O)O)cc2)cc1OC [Example 9, (S)-4-(2-(4-(5-chloro-2-propionylphenyl)-5-methoxy-2-oxopyridin-1(2H)-yl)-3-phenylpropanamido)benzoic acid] | 14 | 31.5 ± 16.1 | 701 ± 615 | 69.8 ± 35.2 | 5.55 ± 1.79 | 6.78 ± 2.36 | 128 ± 50 | 2.4 |  | 
CNC(=O)c1ccc(NC(=O)[C@H](Cc2ccccc2)n2cc(OC)c(-c3cc(Cl)ccc3C(C)=O)cc2=O)cc1 [Example 13, (S)-4-(2-(4-(2-acetyl-5-chlorophenyl)-5-methoxy-2-oxopyridin-1(2H)-yl)-3-phenylpropanamido)-N-methylbenzamide] | 46 | 26.9 ± 14 | 241 ± 168 | 217 ± 151 | 1.67 ± 0.48 | 2.36 ± 1.05 | 119 ± 78 | 6.0 |  | 
CCC(=O)c1ccc(Cl)cc1-c1cc(=O)n(C(Cc2ccn(C)n2)C(=O)Nc2ccc(C(=O)O)cc2)cc1OC (stereo not drawn) [Example 99, 4-(2-(4-(5-chloro-2-propionylphenyl)-5-methoxy-2-oxopyridin-1(2H)-yl)-3-(1-methyl-1H-pyrazol-3-yl)propanamido)benzoic acid] | 29 |  |  |  |  |  |  | 3.5 |  | 
COc1cn([C@@H](CCOC(C)(C)C)C(=O)Nc2ccc(C(=O)O)cc2)c(=O)cc1-c1cc(Cl)ccc1C(C)=O [Example 111, (S)-4-(2-(4-(2-acetyl-5-chlorophenyl)-5-methoxy-2-oxopyridin-1(2H)-yl)-4-(tert-butoxy)butanamido)benzoic acid] | 18 | 36.7 ± 13.7 | 378 ± 98 | 94.1 ± 30.8 | 4.94 ± 2.33 | 4.41 ± 1.99 | 252 ± 56 | 3.2 |  | 
COc1cn([C@H](CCOC(C)(C)C)C(=O)Nc2ccc(C(=O)O)cc2)c(=O)cc1-c1cc(Cl)ccc1C(C)=O [Example 112, (R)-4-(2-(4-(2-acetyl-5-chlorophenyl)-5-methoxy-2-oxopyridin-1(2H)-yl)-4-(tert-butoxy)butanamido)benzoic acid] | > 10000 |  |  |  |  |  |  | >10000 |  | 
CCC(=O)c1ccc(Cl)cc1-c1cc(=O)n([C@@H](CCOC(C)(C)C)C(=O)Nc2ccc3nccnc3c2)cc1OC [Example 114, (S)-4-(tert-butoxy)-2-(4-(5-chloro-2-propionylphenyl)-5-methoxy-2-oxopyridin-1(2H)-yl)-N-(quinoxalin-6-yl)butanamide] | 27 | 24 ± 11.1 | 168 ± 102 | 278 ± 182 | 1.11 ± 0.25 | 1.67 ± 0.23 | 91.2 ± 51.3 | 3.6 | 2.9 | 4.5
COc1cn([C@H](CCOC2CCC2)C(=O)Nc2ccc(C(=O)O)cc2)c(=O)cc1-c1cc(Cl)ccc1C(C)=O [Example 163, (R)-4-(2-(4-(2-acetyl-5-chlorophenyl)-5-methoxy-2-oxopyridin-1 (2H)-yl)-4-cyclobutoxybutanamido)benzoic acid] | 9110 |  |  |  |  |  |  | >10000 |  | 
COc1cn([C@@H](CCOC2CCC2)C(=O)Nc2ccc(C(=O)O)cc2)c(=O)cc1-c1cc(Cl)ccc1C(C)=O [Example 164, (S)-4-(2-(4-(2-acetyl-5-chlorophenyl)-5-methoxy-2-oxopyridin-1(2H)-yl)-4-cyclobutoxybutanamido)benzoic acid] | 30 |  |  |  |  |  |  | 6.4 |  | 

Reference: US10633375B2, “Oxopicolinamide derivative, preparation method therefor and pharmaceutical use thereof” (Jiangsu Hengrui Medicine Co., Ltd., priority 2016, dated 2020)
